Target: T1, human CTPS1 (Homo sapiens, UniProt P17812)
T1 sequence (P17812 1-591): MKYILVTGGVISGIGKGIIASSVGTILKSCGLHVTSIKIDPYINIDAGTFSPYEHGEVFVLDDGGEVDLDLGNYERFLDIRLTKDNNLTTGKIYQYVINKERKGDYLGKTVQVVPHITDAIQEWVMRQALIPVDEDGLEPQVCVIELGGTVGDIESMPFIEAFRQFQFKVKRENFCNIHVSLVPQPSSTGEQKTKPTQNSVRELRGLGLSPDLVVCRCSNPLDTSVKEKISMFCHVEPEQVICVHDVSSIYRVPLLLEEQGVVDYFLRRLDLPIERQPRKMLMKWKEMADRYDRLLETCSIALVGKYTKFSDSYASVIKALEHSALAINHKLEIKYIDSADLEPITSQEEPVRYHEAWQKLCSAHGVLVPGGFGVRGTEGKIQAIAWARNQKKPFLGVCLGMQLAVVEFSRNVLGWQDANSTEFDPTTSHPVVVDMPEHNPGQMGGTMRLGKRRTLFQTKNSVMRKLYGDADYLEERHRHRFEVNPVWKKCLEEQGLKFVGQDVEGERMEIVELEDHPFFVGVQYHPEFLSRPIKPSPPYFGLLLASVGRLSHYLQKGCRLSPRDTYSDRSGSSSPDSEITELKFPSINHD
Test: ADP-Glo assay, human CTPS1 enzyme inhibition
Assay type: biochemical
Settings: wild-type human CTPS1, 25 nM enzyme; ADP-Glo; read-out: ADP-Glo_WT_hCTPS1—25 nM_IC50 (IC50)
How it was run: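 Full-length tagged human CTPS1 (25 nM) pre-incubated 10 min at 25° C with compound, then 10 min with ATP (120 μM) and UTP (160 μM); reaction started with L-glutamine (100 μM) and GTP (60 μM), 1% DMSO, in HEPES pH 7.4, 10 mM Mg2+, 5 mM KCl, 2 mM DTT. Run within linear phase at 25° C; ADP measured by ADP-Glo luminescence.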

| SMILES | IC50 |
| --- | --- |
| CCOc1cncc(-c2ccc(C(=O)N[C@H](c3cc(NS(=O)(=O)C4CC4)ccn3)[C@@H]3CCCO3)nc2)n1 [I-68, N-((R)-(4-(cyclopropanesulfonamido)pyridin-2-yl)((S)-tetrahydrofuran-2-yl)methyl)-5-(6-ethoxypyrazin-2-yl)picolinamide] | 25 to 50 nM |
| CCOc1cncc(-c2ccc(C(=O)N[C@@H](c3cc(NS(=O)(=O)C4CC4)ccn3)[C@@H]3CCCO3)nc2)n1 [I-69, N-((S)-(4-(cyclopropanesulfonamido)pyridin-2-yl)((S)-tetrahydrofuran-2-yl)methyl)-5-(6-ethoxypyrazin-2-yl)picolinamide] | 25 to 50 nM |
| CCOc1cncc(-c2ccc(C(=O)N[C@@H](c3cc(NS(=O)(=O)C4CC4)ccn3)[C@H]3CCCO3)nc2)n1 [I-70, N-((S)-(4-(cyclopropanesulfonamido)pyridin-2-yl)((R)-tetrahydrofuran-2-yl)methyl)-5-(6-ethoxypyrazin-2-yl)picolinamide] | 25 to 50 nM |
| CCOc1cncc(-c2cnc(C(=O)N[C@H](c3cc(NS(=O)(=O)C4CC4)ccn3)[C@H]3COCCO3)s2)n1 [I-73, N-((R)-(4-(cyclopropanesulfonamido)pyridin-2-yl)((S)-1,4-dioxan-2-yl)methyl)-5-(6-ethoxypyrazin-2-yl)thiazole-2-carboxamide] | 5 to 25 nM |
| CCOc1cncc(-c2cnc(C(=O)N[C@H](c3cc(NS(=O)(=O)C4CC4)ccn3)[C@@H]3COCCO3)s2)n1 [I-74, N-((R)-(4-(cyclopropanesulfonamido)pyridin-2-yl)((R)-1,4-dioxan-2-yl)methyl)-5-(6-ethoxypyrazin-2-yl)thiazole-2-carboxamide] | 5 to 25 nM |
| CCOc1cncc(-c2cnc(C(=O)N[C@@H](c3cc(NS(=O)(=O)C4CC4)ccn3)[C@H]3COCCO3)s2)n1 [I-75, N-((S)-(4-(cyclopropanesulfonamido)pyridin-2-yl)((S)-1,4-dioxan-2-yl)methyl)-5-(6-ethoxypyrazin-2-yl)thiazole-2-carboxamide] | 5 to 25 nM |
| CCOc1cncc(-c2cnc(C(=O)N[C@@H](c3cc(NS(=O)(=O)C4CC4)ccn3)[C@@H]3COCCO3)s2)n1 [I-76, N-((S)-(4-(cyclopropanesulfonamido)pyridin-2-yl)((R)-1,4-dioxan-2-yl)methyl)-5-(6-ethoxypyrazin-2-yl)thiazole-2-carboxamide] | ≤ 5 nM |
| O=C(N[C@H](c1cc(NS(=O)(=O)C2CC2)ccn1)[C@H]1COCCO1)c1ncc(-c2cnn3ccc(Cl)cc23)s1 [I-77, 5-(5-chloropyrazolo[1,5-a]pyridin-3-yl)-N-((R)-(4-(cyclopropanesulfonamido)pyridin-2-yl)((S)-1,4-dioxan-2-yl)methyl)thiazole-2-carboxamide] | 5 to 25 nM |
| O=C(N[C@H](c1cc(NS(=O)(=O)C2CC2)ccn1)[C@@H]1COCCO1)c1ncc(-c2cnn3ccc(Cl)cc23)s1 [I-78, 5-(5-chloropyrazolo[1,5-a]pyridin-3-yl)-N-((R)-(4-(cyclopropanesulfonamido)pyridin-2-yl)((R)-1,4-dioxan-2-yl)methyl)thiazole-2-carboxamide] | 5 to 25 nM |
| O=C(N[C@@H](c1cc(NS(=O)(=O)C2CC2)ccn1)[C@@H]1COCCO1)c1ncc(-c2cnn3ccc(Cl)cc23)s1 [I-79, 5-(5-chloropyrazolo[1,5-a]pyridin-3-yl)-N-((S)-(4-(cyclopropanesulfonamido)pyridin-2-yl)((R)-1,4-dioxan-2-yl)methyl)thiazole-2-carboxamide] | 5 to 25 nM |
| O=C(N[C@@H](c1cc(NS(=O)(=O)C2CC2)ccn1)[C@H]1COCCO1)c1ncc(-c2cnn3ccc(Cl)cc23)s1 [I-80, 5-(5-chloropyrazolo[1,5-a]pyridin-3-yl)-N-((S)-(4-(cyclopropanesulfonamido)pyridin-2-yl)((S)-1,4-dioxan-2-yl)methyl)thiazole-2-carboxamide] | 5 to 25 nM |
| CCOc1cncc(-c2cnc(C(=O)N[C@@H](c3cc(NS(=O)(=O)C4CC4)ccn3)[C@@H]3C[C@@H]4CC[C@H]3O4)s2)n1 [I-81, N-((R)-((1R,2S,4S)-7-oxabicyclo[2.2.1]heptan-2-yl)(4-(cyclopropanesulfonamido)pyridin-2-yl)methyl)-5-(6-ethoxypyrazin-2-yl)thiazole-2-carboxamide] | ≤ 5 nM |
| CCOc1cncc(-c2cnc(C(=O)N[C@H](c3cc(NS(=O)(=O)C4CC4)ccn3)[C@@H]3C[C@@H]4CC[C@H]3O4)s2)n1 [I-82, N-((S)-((1R,2S,4S)-7-oxabicyclo[2.2.1]heptan-2-yl)(4-(cyclopropanesulfonamido)pyridin-2-yl)methyl)-5-(6-ethoxypyrazin-2-yl)thiazole-2-carboxamide] | ≤ 5 nM |
| CCOc1cncc(-c2cnc(C(=O)N[C@H](c3cc(NS(=O)(=O)C4CC4)ccn3)[C@H]3C[C@H]4CC[C@@H]3O4)s2)n1 [I-83, N-((S)-((1S,2R,4R)-7-oxabicyclo[2.2.1]heptan-2-yl)(4-(cyclopropanesulfonamido)pyridin-2-yl)methyl)-5-(6-ethoxypyrazin-2-yl)thiazole-2-carboxamide] | 5 to 25 nM |
| CCOc1cncc(-c2cnc(C(=O)N[C@@H](c3cc(NS(=O)(=O)C4CC4)ccn3)[C@H]3C[C@H]4CC[C@@H]3O4)s2)n1 [I-84, N-((R)-((1S,2R,4R)-7-oxabicyclo[2.2.1]heptan-2-yl)(4-(cyclopropanesulfonamido)pyridin-2-yl)methyl)-5-(6-ethoxypyrazin-2-yl)thiazole-2-carboxamide] | ≤ 5 nM |
| O=C(N[C@H](c1cc(NS(=O)(=O)C2CC2)ccn1)C1CCOCC1)c1ncc(-c2cnn3ccc(Cl)cc23)s1 [I-85, (S)-5-(5-chloropyrazolo[1,5-a]pyridin-3-yl)-N-((4-(cyclopropanesulfonamido)pyridin-2-yl)(tetrahydro-2H-pyran-4-yl)methyl)thiazole-2-carboxamide] | 25 to 50 nM |
| O=C(N[C@@H](c1cc(NS(=O)(=O)C2CC2)ccn1)C1CCOCC1)c1ncc(-c2cnn3ccc(Cl)cc23)s1 [I-86, (R)-5-(5-chloropyrazolo[1,5-a]pyridin-3-yl)-N-((4-(cyclopropanesulfonamido)pyridin-2-yl)(tetrahydro-2H-pyran-4-yl)methyl)thiazole-2-carboxamide] | 5 to 25 nM |
| CCOc1cncc(-c2cnc(C(=O)N[C@]3(c4cc(NS(=O)(=O)C5CC5)ccn4)C[C@H](O)C3)s2)n1 [I-87, N-((1s,3s)-1-(4-(cyclopropanesulfonamido)pyridin-2-yl)-3-hydroxycyclobutyl)-5-(6-ethoxypyrazin-2-yl)thiazole-2-carboxamide] | ≤ 5 nM |
| CCOc1cncc(-c2cnc(C(=O)N[C@]3(c4cc(NS(=O)(=O)C5CC5)ccn4)C[C@@H](O)C3)s2)n1 [I-88, N-((1r,3r)-1-(4-(cyclopropanesulfonamido)pyridin-2-yl)-3-hydroxycyclobutyl)-5-(6-ethoxypyrazin-2-yl)thiazole-2-carboxamide] | ≤ 5 nM |
| O=C(N[C@]1(c2cc(NS(=O)(=O)C3CC3)ccn2)C[C@H](O)C1)c1ncc(-c2cnn3ccc(Cl)cc23)s1 [I-89, 5-(5-chloropyrazolo[1,5-a]pyridin-3-yl)-N-((1s,3s)-1-(4-(cyclopropanesulfonamido)pyridin-2-yl)-3-hydroxycyclobutyl)thiazole-2-carboxamide] | 5 to 25 nM |
| O=C(N[C@]1(c2cc(NS(=O)(=O)C3CC3)ccn2)C[C@@H](O)C1)c1ncc(-c2cnn3ccc(Cl)cc23)s1 [I-90, 5-(5-chloropyrazolo[1,5-a]pyridin-3-yl)-N-((1r,3r)-1-(4-(cyclopropanesulfonamido)pyridin-2-yl)-3-hydroxycyclobutyl)thiazole-2-carboxamide] | 5 to 25 nM |
| CCOc1cncc(-c2cnc(C(=O)N[C@@H](c3cc(NS(=O)(=O)C4CC4)ccn3)C(C)(C)OC)s2)n1 [I-91, (S)-N-(1-(4-(cyclopropanesulfonamido)pyridin-2-yl)-2-methoxy-2-methylpropyl)-5-(6-ethoxypyrazin-2-yl)thiazole-2-carboxamide] | 5 to 25 nM |
| CCOc1cncc(-c2cnc(C(=O)N[C@H](c3cc(NS(=O)(=O)C4CC4)ccn3)C(C)(C)OC)s2)n1 [I-92, (R)-N-(1-(4-(cyclopropanesulfonamido)pyridin-2-yl)-2-methoxy-2-methylpropyl)-5-(6-ethoxypyrazin-2-yl)thiazole-2-carboxamide] | 25 to 50 nM |
| CCOc1cncc(-c2cnc(C(=O)N[C@H](c3cc(NS(=O)(=O)C4CC4)ccn3)[C@H]3CCN(C4CCCC4)C3)s2)n1 [I-93, N-((S)-((S)-1-cyclopentylpyrrolidin-3-yl)(4-(cyclopropanesulfonamido)pyridin-2-yl)methyl)-5-(6-ethoxypyrazin-2-yl)thiazole-2-carboxamide] | 5 to 25 nM |
| CCOc1cncc(-c2cnc(C(=O)N[C@H](c3cc(NS(=O)(=O)C4CC4)ccn3)[C@@H]3CCN(C4CCCC4)C3)s2)n1 [I-94, N-((S)-((R)-1-cyclopentylpyrrolidin-3-yl)(4-(cyclopropanesulfonamido)pyridin-2-yl)methyl)-5-(6-ethoxypyrazin-2-yl)thiazole-2-carboxamide] | > 100 nM |

Reference: US20250270200A1, “CTPS1 INHIBITORS AND USES THEREOF” (Nimbus Clotho, Inc., priority 2022, published 2025)
